Calls of active or inactive are those of the source.
Experiments:
[1] = growth suppression of PTEN-null colon cells, dose response, cell-based, HCT116 PTEN knockout (AID 1047); type: functional;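 further: HCT116 colon tumor cells with PTEN knocked out; cells exposed to compound for 60 hours before readout; potency for loss of cell viability measured by luminescence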
[2] = growth suppression of beta-catenin-knockout colon cells, dose response, cell-based, HCT116, human colon tumor (AID 1045); type: functional;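 further: HCT116 colon tumor cells with beta catenin knocked out; cells exposed to compound for 60 hours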
CHO = test: cytotoxicity in TLR9-MyD88 CHO cells, dose response, cytotoxicity control for TLR9-MyD88 binding inhibitor project, cell-based, luminescence (AID 588339); type: functional, hamster; conditions: Cricetulus griseus;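 further: CHO cells stably coexpressing TLR9 and MyD88 fusions from primary screen; compound exposure lasted 48 hours before viability readout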
Beta Lactamase = Beta Lactamase (Pseudomonas aeruginosa, UniProt Q932Y6); test: beta-lactamase reporter inhibitor potency, dose response, artefact control for TLR9-MyD88 binding inhibitor project, BLA reporter cells, FRET fluorescence (AID 588341); type: cell-based;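 further: cell based assay in CHO-K1 cells stably expressing beta-lactamase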
[3] = NIH-3T3 fibroblast cytotoxicity, dose response, cytotoxicity control, cell-based, fluorescence, Alamar Blue, secondary assay (AID 2327); type: functional;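 further: NIH-3T3 mouse fibroblasts cultured with fluconazole at 8 µg/mL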
[4] = C. albicans growth with fluconazole, confirmation, fluorescence, retest (AID 2467); type: functional, cell-based
[5] = molecular target: Serine/threonine-protein phosphatase (Candida dubliniensis (strain CD36 / CBS 7987 / NCPF 3949 / NRRLY-17841) (Yeast), UniProt B9W6M3); test: calcineurin pathway inhibitors in yeast reporter, dose response, S. cerevisiae, CDRE-lacZ, luminescence, secondary (AID 2388); type: functional, cell-based;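 further: yeast reporter cells carrying a calcineurin-responsive lacZ construct stimulated with calcium chloride; luminescent beta-galactosidase reporter signal in whole cells rather than isolated phosphatase activity; potency for inhibition where a drop in reporter signal means calcineurin blockade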
[6] = molecular target: ATP-dependent molecular chaperone HSP82 (Candida albicans (strain WO-1) (Yeast), UniProt C4YTQ8); test: loss of DOC-induced GRE-beta-galactosidase reporter signal, dose response, Hsp90 inhibitor project, S. cerevisiae, luminescence (AID 2400); type: functional, cell-based;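 further: beta-galactosidase luminescence from glucocorticoid response element reporter as proxy for Hsp90 function; inhibitor potency where signal loss means Hsp90 inhibition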
DNA topoisomerase = DNA topoisomerase (Yersinia pestis, UniProt A0A2S9PM60); test: Y. pestis Topo-I inhibitors, cleavage product readout, dose response, biochemical, cherry-pick (AID 588525)
Sequence of DNA topoisomerase (A0A2S9PM60 whole entry): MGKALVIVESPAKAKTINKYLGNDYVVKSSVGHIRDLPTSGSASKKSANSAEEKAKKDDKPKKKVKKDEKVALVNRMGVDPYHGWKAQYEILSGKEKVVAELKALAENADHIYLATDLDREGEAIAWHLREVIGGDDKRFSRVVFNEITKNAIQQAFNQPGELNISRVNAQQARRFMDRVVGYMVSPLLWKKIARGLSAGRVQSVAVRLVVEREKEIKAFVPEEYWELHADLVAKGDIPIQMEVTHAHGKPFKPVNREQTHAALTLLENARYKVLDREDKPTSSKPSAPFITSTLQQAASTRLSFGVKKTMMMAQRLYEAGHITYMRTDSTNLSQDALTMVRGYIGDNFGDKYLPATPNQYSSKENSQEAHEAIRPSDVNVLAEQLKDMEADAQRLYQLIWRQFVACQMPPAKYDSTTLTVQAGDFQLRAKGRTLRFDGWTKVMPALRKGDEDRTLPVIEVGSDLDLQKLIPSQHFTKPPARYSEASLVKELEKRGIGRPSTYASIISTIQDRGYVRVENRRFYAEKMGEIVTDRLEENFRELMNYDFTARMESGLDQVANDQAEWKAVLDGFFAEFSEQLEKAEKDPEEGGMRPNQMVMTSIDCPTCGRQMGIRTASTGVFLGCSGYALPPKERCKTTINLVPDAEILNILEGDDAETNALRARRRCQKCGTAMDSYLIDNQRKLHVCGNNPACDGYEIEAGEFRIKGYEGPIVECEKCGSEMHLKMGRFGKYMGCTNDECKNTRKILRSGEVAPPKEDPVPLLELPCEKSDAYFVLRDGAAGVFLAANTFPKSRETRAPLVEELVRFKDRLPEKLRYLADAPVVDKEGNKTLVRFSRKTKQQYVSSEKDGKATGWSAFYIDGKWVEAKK

Sequence of Serine/threonine-protein phosphatase (B9W6M3 whole entry): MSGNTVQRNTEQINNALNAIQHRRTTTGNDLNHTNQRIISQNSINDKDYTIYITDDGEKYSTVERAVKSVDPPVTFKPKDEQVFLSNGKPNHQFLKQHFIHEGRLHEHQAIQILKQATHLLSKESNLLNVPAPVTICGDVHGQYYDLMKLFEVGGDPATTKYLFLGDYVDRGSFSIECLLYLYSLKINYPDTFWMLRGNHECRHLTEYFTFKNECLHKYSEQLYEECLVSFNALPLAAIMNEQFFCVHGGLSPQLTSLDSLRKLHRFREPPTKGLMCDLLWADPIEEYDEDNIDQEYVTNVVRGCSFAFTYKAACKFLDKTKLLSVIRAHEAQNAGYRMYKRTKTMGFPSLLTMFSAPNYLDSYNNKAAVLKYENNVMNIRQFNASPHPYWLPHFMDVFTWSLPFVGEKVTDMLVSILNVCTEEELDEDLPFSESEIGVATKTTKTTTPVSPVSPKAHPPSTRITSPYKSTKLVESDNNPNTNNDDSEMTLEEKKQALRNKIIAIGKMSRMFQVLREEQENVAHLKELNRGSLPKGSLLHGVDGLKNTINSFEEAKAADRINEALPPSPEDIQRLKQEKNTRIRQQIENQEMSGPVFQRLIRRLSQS
Sequence of Beta Lactamase (Q932Y6 whole entry): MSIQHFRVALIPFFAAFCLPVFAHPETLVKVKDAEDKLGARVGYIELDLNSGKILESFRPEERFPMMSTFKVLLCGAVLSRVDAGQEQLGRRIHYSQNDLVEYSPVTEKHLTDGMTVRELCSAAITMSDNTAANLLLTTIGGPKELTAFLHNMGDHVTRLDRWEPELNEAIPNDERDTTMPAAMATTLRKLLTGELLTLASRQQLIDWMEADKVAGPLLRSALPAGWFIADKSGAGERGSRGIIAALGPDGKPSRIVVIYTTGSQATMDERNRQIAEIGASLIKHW
Sequence of ATP-dependent molecular chaperone HSP82 (C4YTQ8 whole entry): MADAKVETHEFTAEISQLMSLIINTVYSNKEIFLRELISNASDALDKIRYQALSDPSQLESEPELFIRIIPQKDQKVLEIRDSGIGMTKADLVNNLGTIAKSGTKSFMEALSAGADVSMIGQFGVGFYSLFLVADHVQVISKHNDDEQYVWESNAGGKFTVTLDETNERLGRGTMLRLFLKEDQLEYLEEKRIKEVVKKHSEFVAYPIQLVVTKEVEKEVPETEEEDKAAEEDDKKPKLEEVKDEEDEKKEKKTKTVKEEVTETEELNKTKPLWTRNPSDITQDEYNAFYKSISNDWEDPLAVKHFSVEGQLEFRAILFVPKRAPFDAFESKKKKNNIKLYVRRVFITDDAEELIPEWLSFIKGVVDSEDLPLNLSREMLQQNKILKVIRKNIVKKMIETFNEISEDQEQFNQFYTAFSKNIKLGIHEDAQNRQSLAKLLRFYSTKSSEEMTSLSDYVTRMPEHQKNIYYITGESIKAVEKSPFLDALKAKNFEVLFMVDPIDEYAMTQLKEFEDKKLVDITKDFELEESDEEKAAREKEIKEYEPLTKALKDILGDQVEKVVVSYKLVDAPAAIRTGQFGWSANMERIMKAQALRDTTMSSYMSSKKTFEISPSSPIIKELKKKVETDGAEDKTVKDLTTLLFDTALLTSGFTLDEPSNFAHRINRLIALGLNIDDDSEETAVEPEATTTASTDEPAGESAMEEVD

Question: For O=C(/C=C/c1cn(CC(O)CN2CCCCCC2)c2ccccc12)c1cccs1 (centres undefined), which EC50 [1] is on record?
Answer: 14.1 µM (active)

Question: And the EC50 [2]?
Answer: 11.9 µM (active)

Question: What about the IC50 (CHO) of the same molecule?
Answer: 20.1 µM (inactive)

Question: What about the IC50 (Beta Lactamase) of the same molecule?
Answer: 8.35 µM (active)

Question: Which EC50 [3] does the source give for O=C(CC(=O)c1cccc([N+](=O)[O-])c1)Nc1ccccc1Cl here?
Answer: > 150 µM (inactive)

Question: What about the EC50 [4] of the same molecule?
Answer: 0.524 µM (active)

Question: And the EC50 [5]?
Answer: > 180 µM (inactive)

Question: What about the EC50 [6] of the same molecule?
Answer: > 160 µM (inactive)

Question: Which AC50 (DNA topoisomerase) does the source give for CC(C)CN(C(=O)COC(=O)c1c2c(nc3ccccc13)CCC2)c1c(N)n(Cc2ccccc2)c(=O)[nH]c1=O here?
Answer: > 38 µM (inactive)
